{"source": "patent US20200297711A1", "about": "“PHARMACEUTICAL COMPOSITION COMPRISING FGFR SELECTIVE TYROSINE KINASE INHIBITOR” (priority 2017, published 2020)", "key": {"[1]": {"tested_on": "FGFR2 gene amplified diffused type gastric cancer", "assay": "Anti-tumor activity, tumor size on CT images, patient", "format": "in vivo, human", "conditions": "180 mg once daily, one patient, Day 1 of Cycle 3 vs before administration", "procedure": "Compound A was administered once daily at 180 mg to a patient with FGFR2 gene amplified diffused type gastric cancer (poorly differentiated adenocarcinoma). The left image is that before the administration and the right image is that on Day 1 of Cycle 3."}, "[2]": {"assay": "Dose escalation study: tolerability and safety (DLT, MTD, treatment emergent adverse events) of orally administered Compound A 1.5 succinate in patients with solid tumor", "format": "in vivo", "procedure": "The following study was carried out in order to evaluate tolerability and safety when Compound A 1.5 succinate was orally administered to patients with solid tumor. We attempted to determine the maximum tolerated dose (MTD) by evaluating the dose limiting toxicity (DLT) when Compound A 1.5 succinate was orally administered to patients with solid tumor. Each dose in Examples is represented as a dose of Compound A in free form.\nA Modified Toxicity Probability Interval (mTPI) design was employed to determine the MTD of Compound A. Each subject was assigned a dose of Compound A in accordance with the rules of the mTPI design based on a target dose-limiting toxicity (DLT) rate of 25% and the corresponding three toxicity probability intervals that was defined as 20 to 30% (proper dosing), 0 to 20% (underdosing) and 30 to 100% (overdosing). The entire dose assignment decision rule can be precalculated under the mTPI design and presented in two-way table as below.\nIn order to evaluate the PK when administered as a single dose, a single dose of Compound A for each treatment group (at the corresponding dosage for that group) was administered on Day 1. Compound A was administered when fasted, immediately after waking up with at least 10 hours fasting. Taking any meal was prohibited for 2 hours after administration and only drinking water was allowed.\nCycle 1 was started between 8 and 10 days after dosing in Cycle 0 and Compound A was administered continuously once daily. Compound A was administered at least 2 hours after breakfast, and any food intake was prohibited for 1 hour after administration. However, on Day 8 of Cycle 1, Compound A was administered immediately after waking up while the subject was fasted after at least 10 hours of overnight fasting in order to evaluate the PK. Taking any meals was prohibited for 2 hours after administration and only drinking water was allowed.\n• (1) Grade 4 neutropenia that persists for more than 7 days or febrile neutropenia • (2) Grade 4 thrombocytopenia or Grade 3 thrombocytopenia that requires blood transfusion • (3) Any Grade 3 or higher non-hematological toxicity with the exception of: • a) Abnormal clinical laboratory values with no clinical significance. • b) Any events which can be managed and controlled to Grade 2 or less by maximal medical management. • (4) New calcification that is considered clinically significance in such as soft tissue, kidney, intestine, heart or lung confirmed by images • (5) Hyperphosphatemia defined as follows • a) >7 mg/dL>7d despite phosphate lowering therapies • b) >9 mg/dL despite phosphate lowering therapies. • (6) Development of any toxicity that is considered to be related to Compound A and where treatment interruption for 8 days or more from Cycle 0 to Cycle 1 is necessary.\nThe MTD was not defined and the recommended dose was determined to be 140 mg once daily."}, "[3]": {"tested_on": "FGFR pathway", "assay": "Pharmacodynamics: serum Phosphate, FGF23 and 1,25-(OH)2-Vitamin D, PD markers of FGFR pathway inhibition", "format": "in vivo, human", "procedure": "Serum concentrations of Phosphate, FGF23 and 1,25-(OH)2-Vitamin D, PD markers of FGFR pathway inhibition were measured before the administration of Compound A and on Day 15 of Cycle 1."}, "[4]": {"tested_on": "stomach cancer, lung cancer, bladder cancer, endometrial cancer, bile duct cancer, breast cancer", "conditions": "endometrial cancer (PTL 1), bile duct cancer (PTL 2), breast cancer (PTL 3); cited from earlier work"}, "[5]": {"tested_on": "fibroblast growth factor receptors (FGFRs) 1, 2 and 3", "conditions": "reported in PTL 1; cited from earlier work"}, "[6]": {"tested_on": "FGFR2-fusion gene positive intrahepatic cholangiocarcinoma", "assay": "Anti-tumor activity, tumor size, patient", "format": "in vivo, human", "conditions": "30 mg once daily, one patient, FGFR2-fusion gene positive (78%)", "procedure": "When Compound A was administered once daily at 30 mg to a patient with FGFR2-fusion gene positive (78%) intrahepatic cholangiocarcinoma, the tumor size reduced by about 9%."}}}
{"compound": "CNC(=O)n1ccc2cc(Oc3ccnc(NC(=O)c4ccc(C5CCN(CCO)CC5)cc4)c3)c(OCCOC)cc21", "note": "[Compound A, 5-((2-(4-(1-(2-hydroxyethyl)piperidin-4-yl)benzamide)pyridin-4-yl)oxy)-6-(2-methoxyethoxy)-N-methyl-1H-indole-1-carboxamide]", "values": [{"measurement": "tumor size", "setting": "[1]", "value": "reduced significantly"}, {"measurement": "death or adverse events leading to study drug withdrawal", "setting": "[2]; all cohorts", "value": "No death or adverse events leading to study drug withdrawal were reported"}, {"measurement": "ALP increased, Any Gr, n (%)", "setting": "[2]; human, in vivo", "value": "3 (13)"}, {"measurement": "AST increased, Any Gr, n (%)", "setting": "[2]; human, in vivo", "value": "4 (17)"}, {"measurement": "ATL increased, Any Gr, n (%)", "setting": "[2]; human, in vivo", "value": "6 (25)"}, {"measurement": "ATL increased, ≥Gr3, n (%)", "setting": "[2]; human, in vivo", "value": "2 (8)"}, {"measurement": "Anaemia, Any Gr, n (%)", "setting": "[2]; human, in vivo", "value": "3 (13)"}, {"measurement": "Constipation, Any Gr, n (%)", "setting": "[2]; human, in vivo", "value": "2 (8)"}, {"measurement": "Creatinine increased, Any Gr, n (%)", "setting": "[2]; human, in vivo", "value": "9 (38)"}, {"measurement": "Decreased appetite, Any Gr, n (%)", "setting": "[2]; human, in vivo", "value": "2 (8)"}, {"measurement": "Decreased appetite, ≥Gr3, n (%)", "setting": "[2]; human, in vivo", "value": "1 (4)"}, {"measurement": "Diarrhoea, Any Gr, n (%)", "setting": "[2]; human, in vivo", "value": "6 (25)"}, {"measurement": "Dysgeusia, Any Gr, n (%)", "setting": "[2]; human, in vivo", "value": "3 (13)"}, {"measurement": "Hyperphosphatemia, Any Gr, n (%)", "setting": "[2]; human, in vivo", "value": "9 (38)"}, {"measurement": "Lipase increased, Any Gr, n (%)", "setting": "[2]; human, in vivo", "value": "5 (21)"}, {"measurement": "Lymphocyte count decreased, Any Gr, n (%)", "setting": "[2]; human, in vivo", "value": "2 (8)"}, {"measurement": "Malaise, Any Gr, n (%)", "setting": "[2]; human, in vivo", "value": "2 (8)"}, {"measurement": "Nausea, Any Gr, n (%)", "setting": "[2]; human, in vivo", "value": "5 (21)"}, {"measurement": "Neutrophil count decreased, Any Gr, n (%)", "setting": "[2]; human, in vivo", "value": "2 (8)"}, {"measurement": "Neutrophil count decreased, ≥Gr3, n (%)", "setting": "[2]; human, in vivo", "value": "1 (4)"}, {"measurement": "Onychomadesis, Any Gr, n (%)", "setting": "[2]; human, in vivo", "value": "2 (8)"}, {"measurement": "PPE syndrome, Any Gr, n (%)", "setting": "[2]; human, in vivo", "value": "4 (17)"}, {"measurement": "Retinal detachment, Any Gr, n (%)", "setting": "[2]; human, in vivo", "value": "3 (13)"}, {"measurement": "Stomatitis, Any Gr, n (%)", "setting": "[2]; human, in vivo", "value": "2 (8)"}, {"measurement": "Vomiting, Any Gr, n (%)", "setting": "[2]; human, in vivo", "value": "3 (13)"}, {"measurement": "Vomiting, ≥Gr3, n (%)", "setting": "[2]; human, in vivo", "value": "1 (4)"}, {"measurement": "White blood cell count decreased, Any Gr, n (%)", "setting": "[2]; human, in vivo", "value": "2 (8)"}, {"measurement": "adverse events leading to dose interruptions: anorexia", "setting": "[2]; human, in vivo", "value": 2, "unit": "patients"}, {"measurement": "adverse events leading to dose interruptions: common cold", "setting": "[2]; human, in vivo", "value": 1, "unit": "patient"}, {"measurement": "adverse events leading to dose interruptions: macular edema", "setting": "[2]; human, in vivo", "value": 1, "unit": "patient"}, {"measurement": "adverse events leading to dose interruptions: nausea", "setting": "[2]; human, in vivo", "value": 3, "unit": "patients"}, {"measurement": "adverse events leading to dose interruptions: neutrophil count decreased", "setting": "[2]; human, in vivo", "value": 1, "unit": "patient"}, {"measurement": "adverse events leading to dose interruptions: palmar-plantar erythrodysesthesia syndrome", "setting": "[2]; human, in vivo", "value": 1, "unit": "patient"}, {"measurement": "adverse events leading to dose interruptions: pyrexia", "setting": "[2]; human, in vivo", "value": 2, "unit": "patients"}, {"measurement": "adverse events leading to dose interruptions: vomiting", "setting": "[2]; human, in vivo", "value": 2, "unit": "patients"}, {"measurement": "adverse events leading to dose reductions: ALT increased", "setting": "[2]; human, in vivo", "value": 2, "unit": "patients"}, {"measurement": "adverse events leading to dose reductions: AST increased", "setting": "[2]; human, in vivo", "value": 1, "unit": "patient"}, {"measurement": "adverse events leading to dose reductions: palmar-plantar erythrodysesthesia syndrome", "setting": "[2]; human, in vivo", "value": 2, "unit": "patients"}, {"measurement": "dose limiting toxicity (DLT)", "setting": "[2]; human, in vivo", "value": "one patient at 180 mg dosing experienced the DLT (Grade 3 AST/ALT increased)"}, {"measurement": "recommended dose", "setting": "[2]; human, in vivo", "value": 140, "unit": "mg"}, {"measurement": "relation of serious adverse events to study drug", "setting": "[2]; human, in vivo", "value": "none of them were considered to be related to Compound A"}, {"measurement": "maximum tolerated dose (MTD)", "setting": "[2]; once-daily dosing up to 180 mg", "value": "not defined"}, {"measurement": "once-daily dosing at which increases of PD markers reached maximum", "setting": "[3]; Day 15 of Cycle 1", "value": "100 to 140", "unit": "mg"}, {"measurement": "change in serum Phosphate, FGF23 and 1,25-(OH)2-Vitamin D", "setting": "[3]; Day 15 of Cycle 1 vs before administration", "value": "dose-dependent increases in each marker"}, {"measurement": "cell growth suppressing activity", "setting": "[4]", "value": "has a cell growth suppressing activity"}, {"measurement": "inhibitory activity on FGFRs 1, 2 and 3", "setting": "[5]", "value": "has an inhibitory activity"}, {"measurement": "tumor size reduction", "setting": "[6]", "value": "about 9%"}]}
